# From patent US20260263481A1, “COMPOSITION FOR TREATING OR PREVENTING KIDNEY DISEASES” (ORGANOIDSCIENCES LTD., priority 2022, published 2026)
# Columns and labels:
# [1] = test system: human renal tubule cell line HK-2; test: TUNEL assay for apoptosis in HK-2 cells; format: cell-based
# Protocol: To evaluate the effect of PGF2α on kidney diseases, the influence of PGF2α on apoptosis in kidney cells induced by antibiotic treatment was assessed. Colistin, a type of antibiotic, is known to accumulate in proximal tubular cells and induce apoptosis by increasing the expression of the Fas death receptor or by increasing the generation of reactive oxygen species. […] After 48 hours of incubation, a TUNEL assay was conducted to assess apoptosis. Cells that tested positive in the TUNEL assay were considered apoptotic cells.
# Specifically, a vehicle-treated group, a group treated with vehicle and colistin, and a group treated with bimatoprost and colistin were prepared. Apoptosis in HK-2 cells was analyzed using a TUNEL assay.
# [2] = test system: human renal tubule cell line HK-2; test: Reactive oxygen species (ROS) generation in HK-2 cells; format: cell-based
# Protocol: After 48 hours of incubation, ROS generated in the HK-2 cells was analyzed.
# Specifically, intracellular reactive oxygen species (ROS) levels were measured by fluorescence spectroscopy after treatment with bimatoprost and/or colistin. Saline containing 1% DMSO was used as a vehicle.
# [3] = test system: human renal tubule cell line HK-2; test: Cytotoxicity / cell viability assay in HK-2 cells
# Protocol: Specifically, the human renal tubule cell line HK-2 was treated with PGF2α at a concentration of 50 μM and with colistin at 400 μg/mL. In the case of pretreatment with PGF2α, colistin was treated 24 hours after treatment with PGF2α, and the cells were cultured for 48 hours, followed by an assay to evaluate cytotoxicity. In the case of co-treatment, PGF2α and colistin were treated simultaneously, and the cells were cultured for 48 hours, followed by the assay.
# Specifically, bimatoprost was treated to human renal tubule cell line HK-2 at concentrations of 0.1 μM, 0.5 μM, 1.0 μM, 5.0 μM, 10 μM, 20 μM, and 50 μM, and the vehicle-treated group was used as a control. In the case of pretreatment with bimatoprost, colistin was treated 24 hours after bimatoprost treatment, followed by incubation for 48 hours and a cytotoxicity assay. In the case of co-treatment, bimatoprost and colistin were treated simultaneously, followed by 48 hours of incubation and the cytotoxicity assay.
# Escherichia coli = test: Paper disk antibacterial activity on LB medium; format: cell-based; conditions: 24 hours; for growth of E. coli: substance alone on paper disk
# Protocol: Specifically, Escherichia coli, a Gram-negative bacterium, was spread onto an LB medium, and paper disks were treated with bimatoprost and/or colistin. Saline containing 1% DMSO was used as a vehicle. After placing the paper disks onto the LB medium, incubation was carried out for 24 hours.
# C57BL/6N mice = test: Colistin-induced nephrotoxicity model in mice; format: in vivo; conditions: 14 days
# Protocol: Specifically, a colistin-induced nephrotoxicity model was established using 6-week-old C57BL/6N mice. The control group (vehicle-treated group) was prepared by intraperitoneally injecting mice with vehicle (saline containing 1% DMSO) every 12 hours for 14 days. The colistin-treated group was prepared by intraperitoneally injecting colistin at 10 mg/kg every 12 hours for 14 days. The bimatoprost-treated group was prepared by intraperitoneally injecting bimatoprost at 1 mg/kg every 12 hours for 14 days. The bimatoprost and colistin co-treatment group was prepared by intraperitoneally injecting bimatoprost at 1 mg/kg and colistin at 10 mg/kg every 12 hours for 14 days. After 14 days of administration, tissue, blood, and kidneys were collected from the mice, and key indicators of kidney disease, including kidney color, body weight, blood urea nitrogen levels, blood creatinine levels, and expression of kidney injury marker-1 (KIM-1), were analyzed.
# [4] = PGF2α 50 μM co-treated with colistin 400 μg/mL, 48 hours
# [5] = bimatoprost 1 mg/kg + colistin 10 mg/kg i.p. every 12 hours
# [6] = colistin 10 mg/kg i.p. every 12 hours
compound,measurement,setting,value
"CCCCC[C@H](O)/C=C/[C@@H]1[C@@H](C/C=C\CCCC(=O)O)[C@@H](O)C[C@H]1O [PGF2α, prostaglandin F2α]",colistin-induced increase in apoptosis,[1]; [4],reduced by about half
same,reduction of colistin-induced increase in ROS,[2]; [4],approximately 1.5 fold
same,ROS levels,"[2]; PGF2α alone, 50 μM, 48 hours",decreased
CCNC(=O)CCC/C=C\C[C@@H]1[C@@H](/C=C/[C@@H](O)CCc2ccccc2)[C@H](O)C[C@@H]1O [bimatoprost],extent of cell death induced by colistin compared to cells not treated with bimatoprost,[3]; bimatoprost pretreated at 10 μM,reduced by approximately fourfold
same,effect on colistin-induced cell death,"[3]; bimatoprost pretreatment 24 hours before colistin, then 48 hours",reduced colistin-induced cell death
same,number of apoptotic cells compared to the group treated with vehicle and colistin,[1]; bimatoprost and colistin co-treated,reduced by approximately threefold
same,colistin-induced increase in ROS,"[2]; bimatoprost and colistin, level similar to vehicle-treated group",reduced to approximately half
same,inhibitory effect on E. coli growth,Escherichia coli; colistin and bimatoprost together on paper disk,at the same level as that observed in the group treated with colistin alone
same,growth of E. coli,Escherichia coli,not inhibited
same,KIM-1 area compared to the colistin-treated group,C57BL/6N mice; [5],reduced by about eight times
same,KIM-1 expression in kidney,C57BL/6N mice; [5],barely observed
same,blood creatinine levels,C57BL/6N mice; [5],lower than those in the colistin-treated group
same,blood urea nitrogen levels,C57BL/6N mice; [5],lower than those in the colistin-treated group
same,body weight,C57BL/6N mice; [5],weight loss was not observed
same,kidney color,C57BL/6N mice; [5],recovered to a level similar to that of the vehicle-treated group
colistin,cells survived compared to those not treated with colistin,"[3]; colistin 400 μg/mL, 48 hours",about 50%
same,increase in apoptosis compared to cells not treated with colistin,"[1]; colistin 400 μg/mL, 48 hours",approximately 30%
same,apoptotic cells (TUNEL),[1]; vehicle and colistin vs vehicle-treated group (Example 2-2),significant increase in apoptotic cells
same,ROS levels compared to cells not treated with colistin,"[2]; colistin 400 μg/mL, 48 hours (Example 1-3)",more than fivefold
same,increase in ROS levels compared to the vehicle-treated group,"[2]; colistin-treated group (Example 2-3), fluorescence spectroscopy",more than 2.5 fold
same,growth of E. coli,Escherichia coli,markedly suppressed
same,KIM-1 expression in kidney,C57BL/6N mice; [6],clearly observed
same,blood creatinine levels relative to vehicle-treated group,C57BL/6N mice; [6],approximately 1.5 times
same,blood urea nitrogen levels relative to vehicle-treated group,C57BL/6N mice; [6],approximately 1.5 times
same,body weight,C57BL/6N mice; [6],reduction in body weight after day 6
same,kidney color,C57BL/6N mice; [6],became paler
